Laboratory results as given in US4119710A, “Bronchospasmolytic 1-(p-amino-phenyl)-2-amino-ethanols-(1) and salts” (Boehringer Ingelheim GmbH, priority 1972, dated 1978).
Structures can show the parent of a compound that is named as a salt. Where two headings read alike, the source gives them in different places.

Experiments:
[1] = acute toxicity in mice (LD50, Litchfield and Wilcoxon); details: mouse, in vivo, iv, groups of 10, i.v.
Method: (§1) The compounds of this invention were tested for toxicity and with regard to their action on the β-receptors in warm-blooded animals, such as cats and guinea pigs, by the methods described below, and the following test results were obtained for representative species of the genus, where
The acute toxicity of the compounds was determined on groups of 10 mice.

β1 -receptors = biological target: T1, β1 -receptors (Felis catus, UniProt Q9TST6); assay: β1-blocking activity: antagonism to tachycardia provoked by N-isopropyl-noradrenalin sulfate in anesthetized cats; type: in vivo; details: cat, iv
T1 construct: tested on anesthetized cats; from tissue; host or cells: living anesthetized cat, heart (heart rate)
T1 sequence (Q9TST6 whole entry): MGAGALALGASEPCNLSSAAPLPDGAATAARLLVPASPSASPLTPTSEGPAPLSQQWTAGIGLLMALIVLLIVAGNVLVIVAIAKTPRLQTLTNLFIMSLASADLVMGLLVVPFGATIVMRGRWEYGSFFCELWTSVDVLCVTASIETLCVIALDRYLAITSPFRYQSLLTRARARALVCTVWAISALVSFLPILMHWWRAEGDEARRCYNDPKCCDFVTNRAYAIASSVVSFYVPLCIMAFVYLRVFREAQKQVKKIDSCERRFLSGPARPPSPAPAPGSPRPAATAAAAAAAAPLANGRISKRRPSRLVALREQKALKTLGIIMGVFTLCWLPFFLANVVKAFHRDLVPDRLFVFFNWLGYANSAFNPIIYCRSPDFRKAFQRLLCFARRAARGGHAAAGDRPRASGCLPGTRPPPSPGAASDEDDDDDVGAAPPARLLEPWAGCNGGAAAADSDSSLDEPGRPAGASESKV
Method: as §1
The β1 -blocking activity was tested on anesthetized cats as antagonism to tachycardia provoked by a standard dose of 1.0 γ/kg i.v. of N-isopropyl-noradrenalin sulfate. From the average percentage reduction in heart rate acceleration caused by N-isopropyl-noradrenalin sulfate, obtained by various doses of the test compound in question, a median effective dose (ED50) was determined by graphic extrapolation (see Tables II and III).

β2 -receptors [2] = biological target: T2, β2 -receptors (Cavia porcellus, UniProt Q8K4Z4); assay: β2-blocking activity: antagonism to broncholytic activity of N-isopropyl-noradrenalin sulfate in anesthetized guinea pigs (Konzett-Rossler); type: in vivo; details: guinea pig, iv, d(+)-isomers, 5 γ/kg i.v. N-isopropyl-noradrenalin sulfate after 20 γ/kg i.v. acetylcholine (Table III), read-out: Blocking Action on β2 -receptors ED50
T2 construct: tested on anesthetized guinea pigs; from tissue; host or cells: living anesthetized guinea pig, airways (Konzett-Rossler)
T2 sequence (Q8K4Z4 whole entry): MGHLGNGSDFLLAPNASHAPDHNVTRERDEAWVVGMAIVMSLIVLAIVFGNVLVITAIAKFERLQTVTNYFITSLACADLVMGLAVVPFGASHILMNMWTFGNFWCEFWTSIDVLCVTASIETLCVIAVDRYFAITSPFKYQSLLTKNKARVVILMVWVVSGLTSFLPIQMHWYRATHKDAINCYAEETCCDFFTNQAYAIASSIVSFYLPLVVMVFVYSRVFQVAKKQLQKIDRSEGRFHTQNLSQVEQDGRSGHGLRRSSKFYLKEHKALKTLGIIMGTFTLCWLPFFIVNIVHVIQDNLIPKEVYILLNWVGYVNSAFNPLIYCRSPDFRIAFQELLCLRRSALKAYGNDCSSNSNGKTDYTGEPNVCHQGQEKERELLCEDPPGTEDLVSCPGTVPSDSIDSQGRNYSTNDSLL
Method: as §1
The β2 -blocking activity was tested on anesthetized guinea pigs as antagonism to the broncholytic activity which is observed upon administration of 5 γ/kg body weight i.v. of N-isopropyl-noradrenalin sulfate in the test arrangement according to Konzett-Rossler, following the inducement of a bronchospasm caused by a standard dose of 20 γ/kg body weight i.v. of acetylcholine (see Table III).

β2 -receptors [3] = biological target: T2, β2 -receptors; assay: β2-mimetic activity: antagonism to acetylcholine bronchospasm in anesthetized guinea pigs (Konzett-Rossler); type: in vivo; details: for ED50: guinea pig, iv, bronchospasm by 20 γ/kg acetylcholine i.v., test compound i.v., graphic extrapolation (Table I); for Duration of activity (β2 -mimetic activity): i.v. (Table I)
Method: as §1
The β2 -mimetic activity was tested on anesthetized guinea pigs as antagonism to bronchospasm provoked by intravenous administration of 20 γ of acetylcholine per kg body weight (according to the method of Konzett-Rossler) by intravenous administration of the test compound. From the average percentage decrease of the bronchospasm produced by various doses of the test compound, a median effective dose (ED50) was determined by graphic extrapolation (see Table I).

[4] = deaths within 14 days, d(+)-isomers (Table III), read-out: acute toxicity LD50 (Table III)
[5] = d(+)-isomers, tachycardia by 1.0 γ/kg i.v. N-isopropyl-noradrenalin sulfate (Table III), read-out: Blocking Action on β1 -receptors ED50
[6] = deaths within 14 days (Table II), read-out: LD50
[7] = tachycardia by 1.0 γ/kg i.v. N-isopropyl-noradrenalin sulfate, graphic extrapolation (Table II), read-out: Blocking action on the β1 -receptors ED50

Compound | LD50 at 336 h [1, 4] | ED50 (β1 -receptors; [5]) | ED50 (β2 -receptors [2]) | LD50 at 336 h [1, 6] | ED50 (β2 -receptors [3]) | Duration of activity (β2 -mimetic activity) (β2 -receptors [3]) | ED50 (β1 -receptors; [7])
CC(C)(C)NCC(O)c1cc(F)c(N)c(Br)c1 (single isomer, unassigned) [A-d(+), d-1-(4'-amino-3'-bromo-5'-fluoro-phenyl)-2-tert.butylamino-ethanol hydrochloride] | 37.2 mg/kg | 0.0084 mg/kg | > 2 mg/kg | – | – | – | –
CC(C)(C)NCC(O)c1cc(F)c(N)c(Cl)c1 (single isomer, unassigned) [D-d(+), d-1-(4'-Amino-3'-chloro-5'-fluoro-phenyl)-2-tert.butylamino-ethanol] | 34.2 mg/kg | 0.0062 mg/kg | > 2 mg/kg | – | – | – | –
CC(C)(C)NCC(O)c1ccc(N)c(F)c1 (single isomer, unassigned) [E-d(+), d-1-(4'-amino-3'-fluoro-phenyl)-2-tert.butylamino-ethanol hydrochloride] | – | 0.0015 mg/kg | > 2 mg/kg | – | – | – | –
CC(C)(C)NCC(O)c1cc(F)c(N)c(Br)c1.Cl (stereo not shown) [A, 1-(4'-amino-3'-bromo-5'-fluoro-phenyl)-2-tert.butylamino-ethanol hydrochloride] | – | – | – | 34.5 mg/kg | 0.0083 mg/kg | > 150 min | 0.0185 mg/kg
CC(C)(C)N1COC(c2cc(F)c(N)c(Br)c2)C1.Cl.Cl (stereo not shown) [B, 5-(4'-amino-3'-bromo-5'-fluoro-phenyl)-3-tert.butyloxazolidine dihydrochloride] | – | – | – | 27.2 mg/kg | 0.0067 mg/kg | > 110 min | –
Cl.Nc1c(F)cc(C(O)CNC2CC2)cc1Cl (stereo not shown) [C, 1-(4'-amino-3'-chloro-5'-fluoro-phenyl)-2-cyclopropylamino-ethanol hydrochloride] | – | – | – | 57 mg/kg | 0.024 mg/kg | > 50 min | 0.014 mg/kg
CC(C)(C)NCC(O)c1cc(F)c(N)c(Cl)c1.Cl (stereo not shown) [D, 1-(4'-amino-3'-chloro-5'-fluoro-phenyl)-2-tert.butylamino-ethanol hydrochloride] | – | – | – | 35.1 mg/kg | 0.019 mg/kg | > 120 min | 0.008 mg/kg
CC(C)(C)NCC(O)c1ccc(N)c(F)c1.Cl (stereo not shown) [E, 1-(4'-amino-3'-fluoro-phenyl)-2-tert.butylamino-ethanol hydrochloride] | – | – | – | 69.2 mg/kg | 0.018 mg/kg | > 80 min | 0.0135 mg/kg
Br.CCC(C)(C)NCC(O)c1ccc(N)c(C(F)(F)F)c1 (stereo not shown) [F, 1-(4'-amino-3'-trifluoromethyl-phenyl)-2-tert.pentylamino-ethanol hydrobromide] | – | – | – | – | – | – | 0.035 mg/kg
CC(C)(C)NCC(O)c1cc(Cl)c(N)c(C(F)(F)F)c1 (stereo not shown) [G, 1-(4'-amino-3'-chloro-5'-trifluoromethyl-phenyl)-2-tert.butylamino-ethanolhydrochloride] | – | – | – | 36.5 mg/kg | 0.0195 mg/kg | > 130 min | 0.0115 mg/kg
Nc1c(Cl)cc(C(O)CNC2CCC2)cc1C(F)(F)F (stereo not shown) [H, 1-(4'-amino-3'-chloro-5'-trifluoromethyl-phenyl)-2-cyclobutylamino-ethanolhydrochloride] | – | – | – | 36.3 mg/kg | 0.0068 mg/kg | > 125 min | –
CC(C)(C)NCC(O)c1cc(Cl)c(N)c(C#N)c1 (stereo not shown) [I, 1-(4'-amino-3'-chloro-5'-cyano-phenyl)-2-tert.butylamino-ethanol] | – | – | – | 60 mg/kg | 0.0002 mg/kg | > 95 min | 0.00074 mg/kg
CC(C)(C)NCC(O)c1cc(Br)c(N)c(C#N)c1.Cl (stereo not shown) [J, 1-(4'-amino-3'-bromo-5'-cyano-phenyl)-2-tert.butylamino-ethanol hydrochloride] | – | – | – | 67 mg/kg | 0.0048 mg/kg | > 40 min | –
Cl.Nc1c(F)cc(C(O)CNC2CCC2)cc1Br (stereo not shown) [K, 1-(4'-amino-3'-bromo-5'-fluoro-phenyl)-2-cyclobutylamino-ethanol hydrochloride] | – | – | – | 26.4 mg/kg | 0.058 mg/kg | > 50 min | 0.0015 mg/kg
Cl.Nc1c(F)cc(C(O)CNC2CC2)cc1I (stereo not shown) [L, 1-(4'-amino-3'-fluoro-5'-iodo-phenyl)-2-cyclopropylamino-ethanol hydrochloride] | – | – | – | 45.2 mg/kg | – | – | 0.0013 mg/kg
CC(C)NCC(O)c1cc(F)c(N)c(C#N)c1.Cl (stereo not shown) [M, 1-(4'-amino-3'-fluoro-5'-cyano-phenyl)-2-isopropylamino-ethanol hydrochloride] | – | – | – | 66.4 mg/kg | – | > 40 min | 0.00027 mg/kg
CC(C)(C)NCC(O)c1cc(F)c(N)c(C#N)c1.Cl (stereo not shown) [N, 1-(4'-amino-3'-fluoro-5'-cyano-phenyl)-2-tert.butylamino-ethanol hydrochloride] | – | – | – | 58.4 mg/kg | 0.00032 mg/kg | > 40 min | –
Br.N#Cc1cc(C(O)CNC2CCC2)ccc1N (stereo not shown) [O, 1-(4'-amino-3'-cyano-phenyl)-2-cyclobutylamino-ethanol hydrobromide] | – | – | – | 61.8 mg/kg | 0.0069 mg/kg | 40 min | –
CCC(C)(C)NCC(O)c1ccc(N)c(C#N)c1 (stereo not shown) [P, 1-(4'-amino-3'-cyano-phenyl)-2-tert.pentylamino-ethanol] | – | – | – | 62 mg/kg | 0.0036 mg/kg | 65 min | –
CCCNCC(O)c1cc(Cl)c(N)c(C#N)c1.Cl (stereo not shown) [Q, 1-(4'-amino-3'-chloro-5'-cyano-phenyl)-2-propylamino-ethanol hydrochloride] | – | – | – | 53.4 mg/kg | 0.027 mg/kg | 50 min | 0.00076 mg/kg
CCC(C)NCC(O)c1cc(Cl)c(N)c(C#N)c1.Cl (stereo not shown) [R, 1-(4'-amino-3'-chloro-5'-cyano-phenyl)-2-sec.butylamino-ethanol hydrochloride] | – | – | – | 40.4 mg/kg | 0.0057 mg/kg | > 80 min | 0.00032 mg/kg
CC(C)(CO)NCC(O)c1cc(Cl)c(N)c(C#N)c1 (stereo not shown) [S, 1-(4'-amino-3'-chloro-5'-cyano-phenyl)-2-(hydroxy-tert.butylamino)-ethanolhydrochloride] | – | – | – | 81.8 mg/kg | 0.01 mg/kg | > 65 min | 0.00076 mg/kg
CCC(C)(C)NCC(O)c1cc(Cl)c(N)c(C#N)c1.Cl (stereo not shown) [T, 1-(4'-amino-3'-chloro-5'-cyano-phenyl)-2-tert.pentylamino-ethanol hydrochloride] | – | – | – | 33.7 mg/kg | 0.0019 mg/kg | > 40 min | 0.00045 mg/kg
Cl.N#Cc1cc(C(O)CNC2CCCC2)cc(Cl)c1N (stereo not shown) [U, 1-(4'-amino-3'-chloro-5'-cyano-phenyl)-2-cyclopentylamino-ethanol hydrochloride] | – | – | – | 39.1 mg/kg | 0.0098 mg/kg | > 50 min | 0.0007 mg/kg
CC(Cc1ccc2c(c1)OCO2)NCC(O)c1cc(Cl)c(N)c(C#N)c1 (stereo not shown) [V, 1-(4'-amino-3'-chloro-5'-cyano-phenyl)-2-[1"-(3,4-methylenedioxy-phenyl)-2"-propylamino]-ethanol hydrochloride] | – | – | – | 13.5 mg/kg | 0.0027 mg/kg | > 65 min | 0.0014 mg/kg
Cl.N#Cc1cc(C(O)CNC2CCC2)cc(Br)c1N (stereo not shown) [W, 1-(4'-amino-3'-bromo-5'-cyano-phenyl)-2-cyclobutylamino-ethanol hydrochloride] | – | – | – | 38.5 mg/kg | 0.0205 mg/kg | > 50 min | –
CC(C)(C)NCC(O)c1cc(C#N)c(N)c(C#N)c1.Cl (stereo not shown) [X, 1-(4'-amino-3',5'-dicyano-phenyl)-2-tert.butylamino-ethanol hydrochloride] | – | – | – | 166 mg/kg | 0.0113 mg/kg | > 65 min | 0.00092 mg/kg
CC(C)(C)NCC(O)c1cc(Br)c(N)c([N+](=O)[O-])c1 (stereo not shown) [Y, 1-(4'-amino-3'-bromo-5'-nitro-phenyl)-2-tert.butylamino-ethanol] | – | – | – | 35.8 mg/kg | – | – | 0.0028 mg/kg
CC(C)(C)NCC(O)c1cc(Cl)c(N)c([N+](=O)[O-])c1 (stereo not shown) [Z, 1-(4'-amino-3'-chloro-5'-nitro-phenyl)-2-tert.butylamino-ethanol] | – | – | – | 42.4 mg/kg | 0.0315 mg/kg | > 80 min | 0.0045 mg/kg
